Measurements reported in patent publication US10328075B2, “Method of treatment and compounds for use therein” (Baker Heart and Diabetes Institute, priority 2015, dated 2019).
Like-named read-outs stand apart in the source and are kept apart here.

Columns and labels:
hFPR2 = target: T1, hFPR2 (Homo sapiens, UniProt P25090); test: ERK1/2 phosphorylation (AlphaScreen SureFire) in hFPR2-FlpIn-CHO cells; assay type: cell-based; conditions: for Time of maximal ERK1/2 phosphorylation in hFPR2-CHO cells: 10 μM, pilot timecourse; for EC50: read-out: pEC50, ERK1/2 phosphorylation, hFPR2-Flpln-CHO (converted); for ΔLog(τ/KA), ERK1/2 phosphorylation, hFPR2-Flpln-CHO: normalized transduction coefficient, reference agonist Cmpd43; for Log(τ/KA), ERK1/2 phosphorylation, hFPR2-Flpln-CHO: transduction coefficient
T1 construct: expressed in transfected cells
T1 sequence (P25090 1-351): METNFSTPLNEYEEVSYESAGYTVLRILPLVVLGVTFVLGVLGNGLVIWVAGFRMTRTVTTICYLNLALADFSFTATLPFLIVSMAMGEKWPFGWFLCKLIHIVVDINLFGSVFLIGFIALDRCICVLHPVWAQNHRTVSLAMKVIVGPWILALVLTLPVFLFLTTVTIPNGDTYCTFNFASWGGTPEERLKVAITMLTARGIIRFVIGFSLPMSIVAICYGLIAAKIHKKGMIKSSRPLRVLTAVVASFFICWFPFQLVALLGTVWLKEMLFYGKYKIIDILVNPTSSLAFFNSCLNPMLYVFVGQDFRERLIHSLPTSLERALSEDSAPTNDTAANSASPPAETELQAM
Source text: cDNDA construct and generation of stable cell lines: cDNA in pcDNA3.1^+ encoding the human formyl peptide receptors (FPR) subtypes, hFPR1, hFPR2 and hFPR3 was obtained from Invitrogen. The sequences for 3 hFPR receptors were amplified by PCR and cloned into the Gateway entry vector, pDONR202™, using the BP clonase enzyme mix, according to the manufactures' instructions (Invitrogen Inc, Carlsbad, Calif., USA). All hFPR receptors constructs in pDONR201™ were subsequently transfected into the pEF5/FRT/V5/dest vector using the LR clonase enzyme mix (Invitrogen). Receptor constructs (pEF5/FRT/V5/dest) were used to transfect FIp-In CHO cells as described previously (Valant C et al., PNAS, 2014). Cells were selected using 500 μg/mL hydromycin to generate cell lines stably expressing each receptor construct. Cells were maintained and cultured in high glucose DMEM supplemented with 10% FBS, 16 mM HEPES and 500 μg/mL hydromycin at 37° C. under a humidified atmosphere containing 5% CO2.
In the various assays described below, cells were plated into 96-well transparent cell culture plates at 4×10^4 cells per well, cultured overnight in serum-free media at 37° C. in 5% CO2.
Measurement of extracellular signal regulated kinase 1 and 2 phosphorylation (pERK1/2): Initial ERK1/2 phosphorylation at Thr202/Tyr204 time-course experiments were performed to determine the time at which ERK1/2 phosphorylation was maximal after stimulation by each agonist. Cells were seeded onto transparent 96-well cell culture plates at 4×10^4 cells per well. After 6 h, cells were washed once with PBS, and then incubated in serum-free DMEM overnight, to allow FBS-stimulated phosphorylated ERK1/2 levels to subside. […] 10% (v/v) FBS was used as a positive control, with vehicle controls also included. The reaction was terminated by removal of study drugs and lysis of cells with 100 μL of SureFire lysis buffer (TGR Biosciences). Cell were lysed in SureFire lysis buffer and transferred to 384-well opaque proxiplates. Under low-light conditions, a 1:120 (v:v) dilution of AlphaScreen beads (both acceptor and donor):Surefire reaction buffer was prepared, which was mixed with the activation buffer in a ratio of 6:1 (v:v), respectively. Plates were incubated in the dark at 37° C. for 1 h before the fluorescence signal was measured by a Fusion-α plate reader (PerkinElmer Life and Analytical Sciences, Foster city, CA, USA) with standard AlphaScreen settings. Data were normalized to the maximal response elicited by 10% (v/v) FBS at the same time point.
Receptor mediated pERK1/2 levels were determined using the AlphaScreen™ ERK1/2 SureFire™ kit, as described previously (Keov, P et al., 2014). For all experiments, 10% FBS was used as internal positive control to stimulate pERK1/2, and which the maximum responses were used for normalization of data, whilst vehicle was used as negative control.
Data analysis: All data were analysed using GraphPad Prism 6.0 (GraphPad Software, San Deigo, Calif., USA). Where appropriate, concentration-response curves were fitted to derive the maximal agonist effect (Emax), and the ligand potency estimate (pEC50), where Emax is the maximal possible response of the system (not the agonist), basal is the basal level of response in the absence of agonist, and pEC50 is the negative logarithm of the agonist concentration that gives a response halfway between Emax and basal.
In the present study, FIp-IN CHO cells and Gateway plasmid were obtained from Invitrogen Inc (Carlsbad, Calif., USA). The sequences for all 3 known human FPRs (hFPR1, hFPR2 and hFPR3) were amplified by PCR and cloned into the Gateway entry vector, pDONR202TM, using the BP clonase enzyme mix, according to the manufacturers' instructions. The hFPR pDONR201TM constructs were subsequently transfected into the pEF5/FRT/V5/dest vector using the LR clonase enzyme mix (Invitrogen).

[1] = system: rFpr1, rFpr2 expression in NRCM; test: Fpr gene expression in neonatal rat cardiomyocytes (real-time PCR); assay type: cell-based; conditions: 1 μM, 48 h incubation
Description: Isolation and culture of primary rat cardiomyocytes and mouse cardiac fibroblasts: All materials used for cell isolation were of tissue culture grade. Isolation of primary neonatal rat cardiac cardiomyocytes (NRCM) and adult mouse cardiac fibroblasts (AMCF) was performed by serial enzymatic digestion, as previously described (Irvine et al 2012 & Irvine et al. 3) NRCM were plated onto either 12-well tissue culture plates (for simulated ischemia-reperfusion, via hypoxia-reoxygenation, H-R) or 60 mm tissue culture dishes (for gene expression) at a density of 1.3×10^5 cells/cm^2, in the presence of 1% 5-bromo-2′-deoxyuridine. AMCF (passage #3) were seeded onto 60 mm tissue culture dishes at 9.5×10^4 cells/cm^2 and allowed to grow to 80% confluence prior to study. Following 48 h in serum-free DMEM, NRCM in 12-well tissue plates were subjected to simulated ischemia, induced by replacement of culture media with sterile-filtered Kreb's buffer (118 mM NaCl, 4.8 mM KCl, 1.2 mM KH2PO4, 1.2 mM MgSO4, 25 mM NaHCO3, […], 11.0 mM glucose, 1.75 mM CaCl2) prior to incubation for 6 h at 37° C. under hypoxia (95% N2-5% CO2, using a hypoxia chamber, QNA International, Melbourne, Australia). At the end of hypoxia, Kreb's buffer was replaced with fresh, sterile-filtered Kreb's buffer, in the presence or absence of FPR agonists Cmpd17b, Cmpd43 (both 1 μM or vehicle, and NRCM were subjected to 48 h reoxygenation at 37° C. At the end of 48 h reoxygenation, NRCM supernatant was collected for assessment of cardiomyocyte injury. Cardiomyocyte release of cTnI was determined using a commercially available, high-sensitivity rat cTnI ELISA kit (Life Diagnostic Inc.) as per the manufacturer's instructions. Separate NRVM on 60 mm dishes were incubated for 48 h at 37° C. in serum-free DMEM, in the presence or absence of FPR agonists Cmpd17b, Cmpd43 (both 1 μM) or vehicle. At the end of 48 h, RNA was extracted and real-time PCR performed (as described previously (Huynh et al. 2012)), to determine the relative gene expression of rat Fprs (rFpr1, rFpr2 and rFpr3, expressed as the threshold cycle number Ct subtracted from the maximum cycle number utilized, 40).

[2] = Table 2, percentage of ERK1/2 phosphorylation elicited by 10% FBS, read-out: Emax (%), ERK1/2 phosphorylation, hFPR2-Flpln-CHO
[3] = Table 8, percent of response elicited by 10% FBS, read-out: Emax, ERK1/2 phosphorylation, hFPR2-Flpln-CHO

SMILES	Time of maximal ERK1/2 phosphorylation in hFPR2-CHO cells (hFPR2) [min]	Emax (hFPR2; [2]) [%]	EC50 (hFPR2; Table 2) [nM]	ΔLog(τ/KA), ERK1/2 phosphorylation, hFPR2-Flpln-CHO (hFPR2; Table 8)	Emax (hFPR2; [3]) [%]	EC50 (hFPR2; Table 8) [nM]	Log(τ/KA), ERK1/2 phosphorylation, hFPR2-Flpln-CHO (hFPR2; Table 8)	NRCM expression of rFpr1 [1]	NRCM expression of rFpr2 [1]
CC(C)C1C(NC(=O)Nc2ccc(Cl)cc2)C(=O)N(c2ccccc2)N1C (stereo not shown) [BIDI-002]	5	95 ± 4	55	0.0	95 ± 4	50.1	7.7 ± 0.2	without impact	tended to reduce
COc1cccc(Cc2cc(C)nn(C(C)C(=O)Nc3ccc(Br)cc3)c2=O)c1 (stereo not shown) [BIDI-001, N-(4-bromophenyl)-2-[5-(3-methoxybenzyl)-3-methyl-6-oxo-6H-pyridazin-1-yl]-propionamide]	–	–	–	–	–	–	–	did not significantly influence	did not significantly influence
CSCC[C@H](NC=O)C(=O)N[C@@H](CC(C)C)C(=O)N[C@@H](Cc1ccccc1)C(=O)O [fMLP, N-formyl-Met-Leu-Phe]	5	68 ± 11	–	−2.3 ± 0.2	68 ± 11	–	5.4 ± 0.1	–	–
